Data: patent US20090318496A1, “PREPARATION CONTAINING FIBRATE AGENT AND PROCESS FOR PRODUCING THE SAME” (ASKA Pharmaceutical Co., Ltd., priority 2006, published 2009)

Key:
fibrinogen = experiment: Amount of fibrinogen in sodium citrate-containing plasma of dogs, thrombin time method; assay type: in vivo; details: dog sodium citrate plasma, Day 7-4 hr minus Day0-4 hr; FEN 20 mg/kg and/or PIT 2 mg/kg orally once a day for 7 days; average ± standard error
Procedure: (§1) Four hours (Day0-4 hr) and 24 hours (Day0-24 hr) after feeding on the day before the administration start day, blood was collected from antebrachial radial veins, and serum and plasma containing sodium citrate (a citric sodium aqueous solution having a concentration of 3.8% by weight) were obtained. Then using the serum, the total cholesterol (TC), the triglyceride (TG), the phospholipid (PL), and the free fatty acid (NEFA) were quantitatively determined by a Toshiba automatic analyzer (manufactured by Toshiba Medical Systems Corporation, TBA-120FR). Moreover, using the sodium citrate-containing plasma, the amount of fibrinogen was quantitatively determined in accordance with the thrombin time method.
(§2) Incidentally, feeding was performed immediately after every administration.
(§3) Blood was collected after 4 hours of the seventh administration (Day7-4 hr). Using the same manner as in the case of the Day0-4 hr, serum and sodium citrate-containing plasma were obtained, and each of the examinations was performed.
The quantitation results were shown as “an average value±a standard error”. […] Incidentally, the obtained value from each test was regarded as a significant difference when the difference value was less than 5%.

[1] = tested on: lipid and others in blood (TC, TG, PL, NEFA in serum); experiment: Decrease of lipid in blood by combination use of fenofibrate and pitavastatin in dog (serum TC, TG, PL, NEFA); assay type: in vivo
Procedure: Dogs [female and male beagles (YAKUKEN BEAGLE) (11 male dogs and 2 female dogs, 27 to 73 months old)] were used for the examination. Incidentally, each of the dogs was accommodated in a separate bracket cage in a breeding room under the following conditions: a room temperature of 23±3° C., a humidity of 50±10%, a light period of 8:00 to 20:00, and a dark period of 20:00 to 8:00. Moreover, the dog was given 300 g of CD-5M (manufactured by CLEA Japan, Inc.) as a food once a day. Incidentally, the dog was freely allowed to have tap water.
as §1, §2, §3
Incidentally, the obtained value from each test was regarded as a significant difference when the difference value was less than 5%.
Incidentally, the relative index of each component was calculated based on the formula: (the average value of the concentration in the blood after the administration)/(the average value of the concentration in the blood before the administration).

[2] = pitavastatin 4 mg a day for 6 days vs combined with fenofibrate 160 mg a day or gemfibrozil 600 mg twice a day for 7 days; cited from earlier work
[3] = Day 7-4 hr minus Day0-4 hr, FEN 20 mg/kg and/or PIT 2 mg/kg orally once a day for 7 days, average ± standard error
[4] = Day 7-4 hr, FEN 20 mg/kg and/or PIT 2 mg/kg orally for 7 days

CC(C)OC(=O)C(C)(C)Oc1ccc(C(=O)c2ccc(Cl)cc2)cc1 [FEN, Fenofibrate]
ΔFibrinogen (fibrinogen): 6 ± 22 mg/dL | ΔNEFA [1, 3]: −25 ± 20 μEq/L | ΔPL [1, 3]: -71 ± 11 mg/dL | ΔTG [1, 3]: -38.7 ± 16.3 mg/dL

O=C(O)C[C@H](O)C[C@H](O)/C=C/c1c(C2CC2)nc2ccccc2c1-c1ccc(F)cc1 [PIT, Pitavastatin]
ΔFibrinogen (fibrinogen): 11 ± 11 mg/dL | Drug interactions (pharmacokinetic parameter, concentration of unchanged pitavastatin in the blood) [2]: low degree of the drug interactions | ΔNEFA [1, 3]: −6 ± 102 μEq/L | ΔPL [1, 3]: -61 ± 9 mg/dL | ΔTC [1, 3]: -25.0 ± 3.6 mg/dL | ΔTG [1, 3]: -11.5 ± 4.8 mg/dL | Relative index of NEFA (average concentration after/before administration) [1, 4]: 0.978 | Relative index of PL (average concentration after/before administration) [1, 4]: 0.795 | Relative index of TC (average concentration after/before administration) [1, 4]: 0.797 | Relative index of TG (average concentration after/before administration) [1, 4]: 0.791
